In paper PMC11203576 (International Journal of Molecular Sciences, 2024):

Molecular target: MVL (rMVL) (Microcystis viridis, UniProt Q9RHG4)
Format: binding

MVL (rMVL), sequence (Q9RHG4 2-114 limits assumed): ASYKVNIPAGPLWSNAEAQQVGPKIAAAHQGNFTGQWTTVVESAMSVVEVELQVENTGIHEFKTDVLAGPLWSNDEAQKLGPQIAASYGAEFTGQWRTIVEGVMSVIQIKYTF

## OC[C@H]1OC(O)[C@H](O)[C@@H](O)[C@H]1O (stereo partly shown) [galactose]
  % SPR signal retained at 100 mM: ~ 40%
